Assay results reported in patent US20050244387A1, “Entomopathogenic nematodes and methods of their use” (priority 2004, published 2005).

Columns and labels:
Format in all cases: in vivo
[1] = system: second instar Popillia japonica grub populations; assay: Microplot (cylinder) field trials, Trials 1-4; conditions: Ohio
Description: Microplot trials consisted of field plots in which PVC cylinders, 20 cm inside diameter, were inserted to a depth of about 7 cm. Four microplot trials (Trials 14) were conducted on second instar P. japonica grubs.
P. japonica adults were caged in the PVC cylinders to obtain grub populations following the methods described by Klein et al. (2000). Adult beetles were lured to Trece Catch Can traps (Trece Inc., Adair, Okla.) using a feeding lure containing PEG (phenol ethyl propionate, eugenol, and geraniol) and collected. Twice, at 1-week intervals, 30 adults consisting of approximately 50% females (measured volumetrically) were placed in each cylinder and covered with a nylon 20 mesh screen to induce egg laying within the cylinder area. The ovipositing beetles were fed fresh apple slices dusted with Brewer's yeast twice a week. Fourteen days after the initial caging, the nylon screens were removed. The developing grub population was monitored until the larvae reached the second instar, when all curative treatments were applied.
Trials 1, 2, and 4 were located at the Ohio Agricultural Research and Development Center, Wooster, Ohio whereas trial 3 was located at the TrueGreen Technical Center in Delaware, Ohio. Trials 1, 2, and 4 were set up on 1.5-m by 0.9-m plots, separated by 0.9 m alleyways, arranged in a complete randomized block design with four replications/treatment. For these trials, turf consisted of 70% Kentucky bluegrass and 30% dicot and monocot weed species, with level topography and no thatch was observed. Soil was a silt loam, with 2.8% OM, pH 6.0, 11.4 CEC. Trial 3 was conducted on Kentucky bluegrass lawn using 2.44 by 2.44 m plots arranged in a completely randomized block design with 5 replications/treatment. Soil was also a silt loam. Supplemental irrigation was applied prior to treatments to optimize beetle egg hatch and maintain actively growing turfgrass at both locations.
The nematodes were applied in 100 ml of water at 2.5×10^9 IJs/ha as a curative treatment to each cylinder except for trial 3, in which they were applied at 5.0×10^9 IJs/ha in 7.6 liters of water per plot with a hand held sprinkling can. Chemical insecticides were included for comparison in three of the trials. In trial 1, halofenozide was applied at 1.61 kg active ingredient (a.i.)/ha on Jul. 13, 2000 as a preventive treatment prior to P. japonica egg laying with a CO2 sprayer and Teejet 8015 nozzles at 2.81 kg/cm^2 (40 psi) delivering 1630 liters/ha. In trial 2, imidacloprid (Merit 75 WP) was applied at 0.33 kg a.i./ha on July 14 and trichlorfon granules (Dylox 6.2G) at 9.0 kg a.i./ha with a shaker on September 14. In trial 3, trichlorofon was applied as in trial 2. All plots received post-application irrigation (see Table 2).
(§1) Efficacy data from all field trials were obtained from six, 18×18×7 cm deep samples removed from the middle of each plot. Soil from each square was lifted with a spade and placed in a plastic dishpan and the number of live grubs counted by hand sifting the soil and turf.
(§2) Data on the total numbers of surviving grubs from each plot were subjected to the analysis of variance following the log10 […] transformation using Statsoft (1999) for each trial and means were separated by Tukey's mean separation test at P=0.05. In cylinder studies, the number of surviving grubs from all cylinders were pooled by plot. […]. For predictability analysis, all data on the mean percentage control of all white grubs were pooled by treatment and subjected to the analysis of variance using Statsoft (1999) following arcsine transformation. Only trichlorfon was included in these analyses as it is applied as a curative treatment just like the nematodes.

[2] = system: Cyclocephala borealis grubs; assay: Large field plot trial 5, golf course fairway; conditions: Trial 5, Mansfield, Ohio, autumn 2001; nematodes 2.5 × 10^9 IJ/ha, imidacloprid 0.33 kg, trichlorfon 9.0 kg; applied September 11, data October 9
Description: (§3) Four field plot trials (Trials 5-8) were conducted on natural populations of P. japonica and C. borealis, or both species if they occurred together. Trial 5 was conducted on a naturally occurring mixed population of P. japonica and C. borealis grubs on a fairway at Wooldridge Woods Golf Course in Mansfield, Ohio in autumn 2001. Plots measuring 3-m by 3-m and separated by 0.9-m alleyways were arranged in a complete randomized block design with five replications/treatment. All treatments including imidacloprid (Merit 75WP) and trichlorfon (Dylox 6.2G) were applied on the morning of September 11 as curative treatments. Liquid applications were made with a sprinkling can at a volume of 8 liters/plot. Nematodes were applied at 2.5×10^9 IJ/ha. The trichlorfon granules were applied using a Gandy Drop Spreader (Gandy Company, Owatonna, Minn.). Grub population consisted of 30% second and 70% third instar P. japonica, and 100% third instar C. borealis. Turf consisted of 70% Kentucky bluegrass and 30% annual bluegrass, topography level, height 2.5 cm, and had no thatch.
as §1, §2

Popillia japonica grubs = assay: Large field plot trial 5, golf course fairway; conditions: Trial 5, Mansfield, Ohio, autumn 2001, nematodes 2.5 × 10^9 IJ/ha, imidacloprid 0.33 kg, trichlorfon 9.0 kg, applied September 11, data October 9
Description: as §3, §1, §2

[3] = system: mixed populations of third instar Popillia japonica and Cyclocephala borealis grubs; assay: Large field plot trials 6 and 7, Kentucky bluegrass lawn; conditions: Ohio, autumn 2001, nematodes 2.5 × 10^9 IJs/ha, applied September 14, data October 9
Description: Trials 6 and 7 were conducted on stands of Kentucky bluegrass naturally infested with mixed populations of mostly third instar P. japonica and C. borealis in autumn 2001. The 1.2 by 1.2-m plots were located at the TrueGreen Technical Center in Delaware, Ohio. The nematodes were applied at 2.5×10^9 IJs/ha in trial 6 and at 5.0×10^9 IJ/ha in trial 7 with a CO2 backpack sprayer with a 10 cm boom fitted with three 8005 LP flat fan nozzles at a volume of 813 liters/ha. Plots were arranged in a randomized complete block design with 5 replications/treatment for both trials.
as §1, §2

[4] = system: white grubs, Popillia japonica and Cyclocephala borealis; assay: Pooled analysis of field trials (irrigation plus rainfall, predictability); conditions: nematodes at 2.5×10^9 IJs/ha, trichlorfon curatively at standard rate; mean ± S.E.
Excerpt: as §2

[5] = Trial 2, 2001 Wooster, nematodes 2.5 × 10^9 IJs/ha Sept 12, imidacloprid 0.34 kg July 14, trichlorfon 9.0 kg Sept 12, observed Oct 10
[6] = Trial 3, 2001 Columbus, nematodes 5.0 × 10^9 IJs/ha, trichlorfon 9.0 kg, applied Sept 14, observed Oct 9
[7] = Trial 6, Columbus, trichlorfon 9.0 kg/ha
[8] = Trial 7, Columbus, trichlorfon standard rate 9.0 kg
[9] = Trial 1, 2000 Wooster, nematodes 2.5 × 10^9 IJs/ha applied Sept 13, halofenozide 1.61 kg a.i./ha applied July 13, observed Oct 5

Structure (SMILES)	% Control [1, 5] [%]	Mean grubs/plot [1, 5]	C. borealis % control [2] [%]	C. borealis Mean grubs/plot [2]	P. japonica % Control (Popillia japonica grubs)	P. japonica Mean grubs/plot (Popillia japonica grubs)	P. japonica % Control (Popillia japonica grubs; listed as IMIDACLOPRID (MERIT 75 WP)) [%]	% Control [1, 6] [%]	Mean grubs/plot [1, 6] [ab grubs/plot]	% Control [3, 7] [%]	Mean grubs/plot [3, 7] [a grubs/plot]	% Control [3, 8] [%]	Mean grubs/plot [3, 8] [b grubs/plot]	overall percent white grub control, pooled data across all trials [4] [%]	% Control [1, 9] [%]	Mean grubs/plot [1, 9] [b grubs/plot]
O=[N+]([O-])NC1=NCCN1Cc1ccc(Cl)nc1 [Imidacloprid]	98	0.3 d grubs/plot	47	3.8 ab grubs/plot	no effect	17.8 a grubs/plot	0									
COP(=O)(OC)C(O)C(Cl)(Cl)Cl (stereo not shown) [Trichlorfon]	92	1.3 cd grubs/plot	47	3.8 b grubs/plot	57%	7.6 c grubs/plot		29	6.4	0	11.7	77	4.0	50.33±13.5		
CC(C)(C)N(NC(=O)c1ccc(Cl)cc1)C(=O)c1ccccc1 [Halofenozide]															98	0.7
